Experimental data from PMC10743726, “Preclinical Evaluation of a Novel High-Affinity Radioligand [^99mTc]Tc-BQ0413 Targeting Prostate-Specific Membrane Antigen (PSMA)” (International Journal of Molecular Sciences, 2023).

Key:
PSMA = settings: read-out: Equilibrium Dissociation Constant, KD; cited from earlier work
[1] = system: PSMA-positive PC3-pip xenografts; test: Biodistribution in PC3-pip tumor-bearing mice; settings: 40 pmol/mouse
Method: All in vivo experiments were carried out on BALB/c nu/nu or NMRI mice purchased from Scanbur A/S (Sollentuna, Sweden). All animal studies were approved by the Ethics Committee for Animal Research in Uppsala (Sweden), following the national legislation on the protection of laboratory animals (permit 5.8.18-00473/2021, approved 26 February 2021). Prostate cancer xenografts expressing PSMA were established in BALB/c nu/nu mice via subcutaneous injection of PC3-pip cell suspension in PBS (10^7 cells/animal in 100 µL). For in vivo specificity control, 10^7 cells/animal PSMA-negative SKOV-3 or PC-3 cells were implanted. […] Four mice per data point were used in in vivo experiments; two mice per data point were used in SPECT/CT (^99mTc-labeled BQ0413) and PET/CT (^68Ga-labeled PSMA-11) imaging experiments.
Each mouse was intravenously injected with 40 pmol of [^99mTc]Tc-BQ0413 (60 kBq; mass of injected compound was adjusted with unlabeled tracer). The mice were euthanized after lethal intraperitoneal injection of ketamine/xylazine followed by exsanguination 1, 3, and 6 h pi. The organs of interest were collected, weighed, and measured for their activity content using the gamma counter. The uptake activity in organs was calculated as the percentage of injected activity per gram (%IA/g) for blood, salivary gland, lungs, liver, spleen, pancreas, stomach, small intestine, kidneys, tumor, muscle, and bone tissue and as %IA for the remaining carcass and the rest of the intestines with content.
Animals were euthanized, organs were collected, and activity uptake was measured according to the protocol described above.

In the case of [^177Lu]Lu-PSMA-617, the Kd (PSMA) is given as 0.24 nM.

For `O=C([O-])CN(CCN(CC(=O)[O-])Cc1cc(CCC(=O)NCCCCCC(=O)NCCCC[C@H](NC(=O)N[C@@H](CCC(=O)O)C(=O)O)C(=O)O)ccc1[O-])Cc1cc(CCC(=O)O)ccc1[O-].[68Ga+3].[OH3+]` [[^68Ga]Ga-PSMA-11], the “Activity in GI tract (with content)” value ([1]; 1 h pi) was 1.6 ± 0.3 %IA/sample, the Tumor-to-blood ratio ([1]; 1 h pi) was 26 ± 9 and the Tumor-to-bone ratio ([1]; 1 h pi) was 34 ± 7. For the same molecule, the Tumor-to-kidneys ratio ([1]; 1 h pi) was 0.09 ± 0.02, the Tumor-to-liver ratio ([1]; 1 h pi) was 30 ± 14 and the Tumor-to-lungs ratio ([1]; 1 h pi) was 7 ± 2. The Tumor-to-muscle ratio ([1]; 1 h pi) was 38 ± 11, the Tumor-to-pancreas ratio ([1]; 1 h pi) was 15 ± 3 and the Tumor-to-salivary gland ratio ([1]; 1 h pi) was 5 ± 1. For the same molecule, the Tumor-to-small intestine ratio ([1]; 1 h pi) was 42 ± 14, the Tumor-to-spleen ratio ([1]; 1 h pi) was 0.7 ± 0.2 and the Tumor-to-stomach ratio ([1]; 1 h pi) was 29 ± 11. The Uptake in blood ([1]; 1 h pi) was 0.8 ± 0.1 %IA/g, the Uptake in bone ([1]; 1 h pi) was 0.60 ± 0.06 %IA/g and the Uptake in kidneys ([1]; 1 h pi) was 226 ± 40 %IA/g. The Uptake in liver ([1]; 1 h pi) was 0.7 ± 0.2 %IA/g, the Uptake in lungs ([1]; 1 h pi) was 3.2 ± 0.6 %IA/g and the Uptake in muscle ([1]; 1 h pi) was 0.54 ± 0.08 %IA/g. For the same molecule, the Uptake in pancreas ([1]; 1 h pi) was 1.3 ± 0.2 %IA/g, the “Uptake in salivary gland” value ([1]; 1 h pi) was 4.4 ± 0.8 %IA/g and the “Uptake in small intestine” value ([1]; 1 h pi) was 0.5 ± 0.1 %IA/g. It also gave an Uptake in spleen ([1]; 1 h pi) of 28 ± 4 %IA/g, an Uptake in stomach ([1]; 1 h pi) of 0.8 ± 0.3 %IA/g and an Uptake in tumor ([1]; 1 h pi) of 20 ± 3 %IA/g. The Uptake in tumor ([1]; 3 h pi) was 20 ± 3 %IA/g and the Kd (PSMA) was 0.5 ± 0.2 nM.
